One assay has as its system 22Rv1. Kind of assay: 22Rv1 cell proliferation assay (Experimental Example 1, cell count). Format: cell-based. The note with it: Homo sapiens, 22Rv1, read-out: 22Rv1 cell count decrease at 10 μM for 48 hours; 10 μM (method: four days); read-out: 22Rv1 cell count decrease at 10 μM. Put shortly:
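Human prostate cancer 22Rv1 cells, reported to express high levels of AR-V7, were grown in RPMI-1640 containing 10% fetal bovine serum. Test compounds were first dissolved in DMSO as 50 mM stock solutions and then diluted to the required concentrations. Proliferation was assessed as the percentage decrease in cell count.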

The test system of the next assay is DU145. As to the kind of experiment: DU145 cell proliferation. The class given is cell-based, human. The settings on record: AR-negative cell line; 1 μM. The protocol:
(§1) The human prostate cancer cell line, 22Rv1 has been reported to express a high level of AR-V7. Thus, 22Rv1 was seeded at 50,000 cells/well on a 24-well plate in quadruplicates and treated with test compound in concentrations ranging up to 20 μM for four days. Standard culture media was RPMI-1640 supplemented with 10% fetal bovine serum. The test compound initially was dissolved in DMSO at 50 mM. This stock solution was then diluted as needed for the indicated concentrations. At the end of the four-day period, cells were harvested using 1% trypsin and counted using an automated cell counter.
Cell Culture. Human CaP cell lines, LNCaP, 22Rv1, VCaP, PC3, and DU145 are obtained from the American Type Culture Collection (ATCC) and maintained in the standard culture media: RPMI-1640 supplemented with 10% fetal bovine serum (FBS). LNCaP, 22Rv1, and VCaP are androgen-responsive cell lines, while PC3 and DU145 are not. To establish SAT resistant CaP cell lines, LNCaP, 22Rv1, and VCaP are treated continuously with 10-50 μM abiraterone, apalutamide, darolutamide, or enzalutamide. […] Mycoplasma contamination is also assessed using a PCR based detection system.

A further assay deals with 22Rv1 cells. As to the kind of experiment: Apoptosis assay (annexin-V, TUNEL) in 22Rv1. The class given is cell-based, human. The settings on record: 22Rv1, 1 μM. As to the method:
Apoptosis Assay. An apoptosis assay is carried out using the Thermo Fisher ApoDETECT Annexin V-FITC kit following the protocol recommended by the vendor. […] Then, fixed cells are incubated with Annexin V-FITC in PBS solution for 30 minutes at room temperature. After washing three times with PBS, cells are treated with 300 nM DAPI in PBS for 5 minutes at room temperature. Finally, after washing three times with PBS, mounting solution is added and the cells are visualized using immunofluorescence microscopy. Next, a TUNEL assay is performed using Promega DeadEnd Fluorometric TUNEL system. After treatment with Test Compound and fixation as described above in the Annexin-V experiment, 100 μl of equilibration buffer is incubated for 10 min. Then, 50 μl of TdT reaction mix is added and incubated for 60 min at 37° C. in a humidified chamber. Finally, stop solution is added and samples are mounted on slides using mounting medium. To assess non-specific cytotoxicity, an LDH assay kit is used.

Another assay deals with 22Rv1-Enz^R cells. Kind of assay: 22Rv1-Enz^R cell proliferation (cell count, Experimental Example 3). Format: cell-based, human. As to the method: as §1
(§2) Cell Culture. Human CaP cell lines, LNCaP, 22Rv1, VCaP, PC3, and DU145 are obtained from the American Type Culture Collection (ATCC) and maintained in the standard culture media: RPMI-1640 supplemented with 10% fetal bovine serum (FBS). LNCaP, 22Rv1, and VCaP are androgen-responsive cell lines, while PC3 and DU145 are not. To establish SAT resistant CaP cell lines, LNCaP, 22Rv1, and VCaP are treated continuously with 10-50 μM abiraterone, apalutamide, darolutamide, or enzalutamide. After 3-6 months, stable cell lines are established and designated as LNCaP-Abi^R, LNCaP-Apa^R, LNCaP-Daro^R, LNCaP-Enz^R, VCaP-Abi^R, VCaP-Apa^R, VCaP-Daro^R, VCaP-Enz^R, 22Rv1-Abi^R, 22Rv1-Apa^R, 22Rv1-Daro^R and 22Rv1-Enz^R. Unless otherwise specified, the standard culture media for these SAT-resistant cell lines included 10 μM of their respective SAT. For the proteasome inhibitor study, the inhibitors MG132 and Epoxomicin are used. The E3 ligase inhibitors Heclin, Nutlin 3a, Thalidomide, and VH298 are used. Cell lines obtained from ATCC are confirmed by checking their morphology using optical microscopy, establishing baselines for cell proliferation, verifying species of origin using isoenzymology, and characterizing the cell's DNA fingerprint using short tandem repeat (STR) profiling. Mycoplasma contamination is also assessed using a PCR based detection system.

A further assay deals with T1, AR-V7 (Homo sapiens, UniProt P10275).
T1 sequence (P10275 1-644 isoform P10275-3): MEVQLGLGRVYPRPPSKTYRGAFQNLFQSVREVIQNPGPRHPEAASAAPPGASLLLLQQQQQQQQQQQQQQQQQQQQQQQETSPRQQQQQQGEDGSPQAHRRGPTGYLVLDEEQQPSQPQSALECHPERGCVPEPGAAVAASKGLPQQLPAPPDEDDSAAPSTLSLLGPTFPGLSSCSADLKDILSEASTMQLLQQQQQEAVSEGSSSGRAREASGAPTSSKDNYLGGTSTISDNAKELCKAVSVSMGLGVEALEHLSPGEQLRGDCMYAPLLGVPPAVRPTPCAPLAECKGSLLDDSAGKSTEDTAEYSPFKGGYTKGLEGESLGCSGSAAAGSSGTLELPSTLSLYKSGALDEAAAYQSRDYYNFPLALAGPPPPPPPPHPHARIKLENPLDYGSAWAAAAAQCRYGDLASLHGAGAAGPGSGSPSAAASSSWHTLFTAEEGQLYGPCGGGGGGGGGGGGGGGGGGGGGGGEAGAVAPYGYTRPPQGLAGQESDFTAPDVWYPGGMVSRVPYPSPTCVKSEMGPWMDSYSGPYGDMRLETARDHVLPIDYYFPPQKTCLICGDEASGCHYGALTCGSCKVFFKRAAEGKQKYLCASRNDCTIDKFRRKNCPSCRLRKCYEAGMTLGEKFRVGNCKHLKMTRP
Kind of assay: Immunoblot analysis of AR-V7 protein in CaP cells (Experimental Example 3). Format: cell-based. The arrangement: endogenous in cells; host or cells: 22Rv1 (also VCaP, LNCaP and SAT-resistant sublines). As to the method: as §2
Immunoblot Analysis. CaP cells are collected and lysed with the lysis buffer (20 mM Tris-HCl (pH 7.5), 150 mM NaCl, 1 mM Na2EDTA, 1 mM EGTA, 1% Triton, 2.5 mM sodium pyrophosphate, 1 mM beta-glycerophosphate, 1 mM Na3VO4, and 1 μg/ml leupeptin) containing 1 mM phenylmethylsulfonyl fluoride (PMSF). Cell lysates are then centrifuged and protein in the supernatant is quantified. After separating 25-50 μg of protein using SDS-PAGE, samples are incubated with AR-V7, GR, PR, ERα, AR-FL, ubiquitin, or β-actin antibodies. For AR-V7, AR-FL, PR, GR, and ERα immunoblots, primary antibody is diluted 1:1000 in 5% skim milk. For the β-actin immunoblot, 1:10000 diluted primary antibody is used. All membranes are incubated overnight at 4° C. Following the incubation with appropriate secondary antibody, immunoblots are analyzed using SuperSignal West Femto Maximum Sensitivity Substrate (ThermoFisher).
A general note: Immunoblotting shows a protein as a band on a membrane.

Read-outs that look alike come from different tables or passages of the source. Where a SMILES comes first, the peptide text is derived from it. [ ]: non-standard residue; d: D form. The star is where a group is joined. ξ: configuration not given here. X1 = O=C(COc1c(-c2csc(N3CCOCC3)n2)ccc(F)c1F)NCCCCCCN*; Dip = N[C@H](C(=O)O)C(c1ccccc1)c1ccccc1; Chg = N[C@H](C(=O)O)C1CCCCC1; NMeA = CN[C@@H](C)C(=O)O; ξP = O=C(O)C1CCCN1 Where only a bound is given, the exact number is not on record here.

With `Cc1ncsc1-c1ccc([C@H](C)NC(=O)[C@@H]2C[C@@H](O)CN2C(=O)[C@@H](NC(=O)CCCCNC(=O)COc2c(-c3csc(N4CCOCC4)n3)ccc(F)c2F)C(C)(C)C)cc1` [Example 16, (2S,4R)-1-((S)-2-(5-(2-(2,3-difluoro-6-(2-morpholinothiazol-4-yl)phenoxy)acetamido)pentanamido)-3,3-dimethylbutanoyl)-4-hydroxy-N-((S)-1-(4-(4-methylthiazol-5-yl)phenyl)ethyl)pyrrolidine-2-carboxamide], the inhibition at 10 µM in the assay with 22Rv1 is below 50%. In the assay on DU145, the “effect on DU145 cells” value is listed as “not affected”. The “apoptosis, TUNEL assay” value in the assay on 22Rv1 cells is on record as “confirmed”. Further, the “apoptosis, annexin-V assay” value in the assay with 22Rv1 cells (0 to 48 hours, starts approximately three hours after treatment, increases through 48 hours) is “increase in annexin-V staining”. For the same molecule, the “22Rv1-EnzR cell count, % of control” value with 22Rv1-Enz^R cells (1 μM, 6 days) is recorded as “about 45 % of control”. The “AR-V7 degradation after pretreatment with proteasome inhibitors” value at AR-V7 (22Rv1, 2 hours MG-132 (5 μM) and epoxomicin (1 μM), then compound at 1 μM) is reported as “completely blocked”. On AR-V7 (22Rv1, 24 hours, immunoblot, read-out: DC50, concentration at which 50% of AR-V7 degraded in 24 hours), the DC50 stood at 370 nM. For the same molecule, the “AR-V7 degradation after pretreatment with E3 ubiquitin ligase inhibitors” value on AR-V7 (22Rv1, two hours VH 298 20 μM, heclin 10 μM, nutlin 3a 0.1 μM or thalidomide 10 μM, then compound at 1 μM) is “only VH298 pretreatment inhibits AR-V7 degradation”. The “concentration from which AR-V7 protein expression is decreased (immunoblot)” value on AR-V7 (22Rv1 cells, 24 hours, 0, 0.01, 0.1, 1 and 10 μM tested) amounted to 0.1 µM. Also, the “AR-V7 protein expression level in parental and SAT-resistant 22Rv1, VCaP and LNCaP cells” value on AR-V7 (immunoblot, effect on AR-V7 greater than on AR-FL) is given as “decreases the protein expression levels”.
`CN[C@@H](C)C(=O)N[C@H](C(=O)N1CCCC1C(=O)N[C@H](C(=O)NCCCCCCNC(=O)COc1c(-c2csc(N3CCOCC3)n2)ccc(F)c1F)C(c1ccccc1)c1ccccc1)C1CCCCC1` (stereo partly drawn) [Example 26, (S)-1-((S)-2-cyclohexyl-2-((S)-2-(methylamino)propanamido)acctyl)-N-((S)-1-((6-(2-(2,3-difluoro-6-(2-morpholinothiazol-4-yl)phenoxy)acetamido)hexyl)amino)-1-oxo-3,3-diphenylpropan-2-yl)pyrrolidine-2-carboxamide] (H-[NMeA][Chg][ξP][Dip]-X1): the inhibition at 10 µM in the assay with 22Rv1 was above 50%. In addition, the “reduction of 22Rv1-Enz^R cell counts after pretreatment with MG-132” value with 22Rv1-Enz^R cells (10 μM, 4 days, MG-132 (5 μM) pretreatment) is listed as “substantially blocked”. In addition, the DC50 at AR-V7 (24 hours, immunoblot, read-out: DC50, concentration at which 50% of AR-V7 is degraded in 24 hours) was below 50 nM.
